Legend:
[1] = biological target: T1, KCNQ2 potassium channel (Kv7.2) (Homo sapiens, UniProt O43526); assay: whole-cell voltage clamp in CHO cells; format: cell-based
[2] = biological target: T1, KCNQ2 potassium channel (Kv7.2); assay: whole-cell voltage clamp in CHO cells, with VSD mutagenesis; format: cell-based

T1 sequence (O43526 whole entry): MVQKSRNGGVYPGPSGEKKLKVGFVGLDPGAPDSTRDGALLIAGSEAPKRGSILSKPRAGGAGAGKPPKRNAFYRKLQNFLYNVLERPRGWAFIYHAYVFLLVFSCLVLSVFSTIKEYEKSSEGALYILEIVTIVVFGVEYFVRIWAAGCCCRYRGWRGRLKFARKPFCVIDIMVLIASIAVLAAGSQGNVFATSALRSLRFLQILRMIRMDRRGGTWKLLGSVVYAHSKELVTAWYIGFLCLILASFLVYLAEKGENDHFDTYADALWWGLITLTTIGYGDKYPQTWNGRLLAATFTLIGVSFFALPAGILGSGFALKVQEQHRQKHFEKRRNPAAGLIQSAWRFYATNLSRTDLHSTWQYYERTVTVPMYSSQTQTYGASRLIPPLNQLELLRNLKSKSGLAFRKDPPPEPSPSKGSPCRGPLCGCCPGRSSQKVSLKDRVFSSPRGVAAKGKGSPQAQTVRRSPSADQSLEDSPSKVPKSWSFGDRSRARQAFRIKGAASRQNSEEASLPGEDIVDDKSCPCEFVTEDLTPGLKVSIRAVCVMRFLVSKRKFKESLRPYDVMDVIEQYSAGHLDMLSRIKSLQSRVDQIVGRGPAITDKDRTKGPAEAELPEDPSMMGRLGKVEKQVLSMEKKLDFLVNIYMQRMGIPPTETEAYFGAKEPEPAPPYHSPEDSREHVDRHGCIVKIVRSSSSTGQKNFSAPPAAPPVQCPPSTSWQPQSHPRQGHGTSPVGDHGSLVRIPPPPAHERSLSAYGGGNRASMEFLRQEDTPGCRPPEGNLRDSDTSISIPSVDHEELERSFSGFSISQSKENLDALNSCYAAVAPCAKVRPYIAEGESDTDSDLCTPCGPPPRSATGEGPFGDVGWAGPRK

Row | Compound | whole-cell voltage clamp in CHO cells [1] | EC50 [2]
1 | O=C(Nc1ccc(Cl)nc1)c1ccccc1 [YGP1, N-(6-Chloropyridin-3-yl)benzamide] | Electrophysiological recording showed that YGP1 still exhibited potentiation activity on KCNQ2 as ztz240 did | –
2 | O=C(Nc1ccc(Cl)nc1)c1ccc(F)cc1 [ztz240] | – | 2810 nM

Source: PMC3773576 (Cell Research, 2013)
